Literature values in patent US20130226549A1, “STRUCTURE-BASED FRAGMENT HOPPING FOR LEAD OPTIMIZATION AND IMPROVEMENT IN SYNTHETIC ACCESSIBILITY” (priority 2012, published 2013).
Read-outs that look alike come from different tables or passages of the source.

Molecular target: T1, human 5-LOX (Homo sapiens, UniProt P09917)
T1 sequence (P09917 1-674): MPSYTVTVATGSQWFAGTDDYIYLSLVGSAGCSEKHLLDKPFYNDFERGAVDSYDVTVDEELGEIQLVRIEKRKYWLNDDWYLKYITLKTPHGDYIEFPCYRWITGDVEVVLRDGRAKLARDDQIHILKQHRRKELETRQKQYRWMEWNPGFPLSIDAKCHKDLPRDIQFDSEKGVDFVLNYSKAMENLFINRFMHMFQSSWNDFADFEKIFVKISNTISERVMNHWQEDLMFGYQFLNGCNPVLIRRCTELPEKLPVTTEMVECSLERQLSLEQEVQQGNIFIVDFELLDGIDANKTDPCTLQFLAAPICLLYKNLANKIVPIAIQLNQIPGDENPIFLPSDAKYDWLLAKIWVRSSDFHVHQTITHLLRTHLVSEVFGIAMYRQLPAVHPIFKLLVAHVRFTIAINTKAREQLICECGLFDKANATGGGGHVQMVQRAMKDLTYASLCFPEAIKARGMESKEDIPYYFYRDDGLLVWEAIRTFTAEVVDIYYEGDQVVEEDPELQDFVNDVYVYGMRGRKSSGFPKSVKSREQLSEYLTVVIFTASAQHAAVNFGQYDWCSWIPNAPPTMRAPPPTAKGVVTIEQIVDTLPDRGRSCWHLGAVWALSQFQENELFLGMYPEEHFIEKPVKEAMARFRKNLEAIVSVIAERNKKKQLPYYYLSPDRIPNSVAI
Conditions: from the literature

[1] = 5-LOX, LeadOp+R example, read-out: Inhibition IC50

Compound | IC50 (human 5-LOX, LeadOp example, read-out: IC50) [nM] | IC50 [1] [nM]
O=c1cc(-c2ccc(F)cc2)c2ccc(CCc3ncc(C(O)(C(F)(F)F)C(F)(F)F)s3)cc2o1 [compound H] | 64 | –
CCC(O)(c1cnc(Sc2ccc3c(-c4ccc(F)cc4)cc(=O)oc3c2)s1)C(F)(F)F (stereo not shown) [rB1] | – | 7 ± 2
O=c1cc(-c2ccc(F)cc2)c2ccc(CCc3ncc(C(O)(C(F)(F)F)C(F)(F)F)s3)cc2o1 [rB3] | – | 64 ± 3
CN(Cc1ccc2c(-c3ccc(F)cc3)cc(=O)oc2c1)c1ncc(C(O)(C(F)(F)F)C(F)(F)F)s1 [rB, reference compound] | – | 145
